# Where “and” joins values, the source holds several entries; their conditions need not be identical. Equal values may be shown once. Entries after “also recorded” stand apart in the source; their conditions may differ.
# How the values were obtained:
# [1] = target: T1, TET1 protein (Homo sapiens, UniProt Q8NFU7); experiment: Fluorometric TET hydroxylase activity assay with purified TET1 enzyme; assay type: biochemical; conditions: screened at 10^−7 to 10^−4 M
# T1 construct: purchased Active Motif, Carlsbad, CA, USA
# Protocol: Figure 4 and Table S1 show the dependence of TET1 activity on the concentration of compound 1.
# Compounds 1–6 were tested for the inhibition of the total 5mC hydroxylase TET enzyme using a purified TET1 enzyme (Active Motif, Carlsbad, CA, USA) by a fluorometric TET hydroxylase activity quantification kit (Abcam, Cambridge, UK). A total of 25 µg of purified TET1 protein was diluted in a TET assay buffer in a 5 mL volumetric flask, containing α-ketoglutarate and ferric sulfate. The concentrations of ascorbic acid, α-ketoglutarate, and ferric sulfate in the diluted TET assay buffer were 2, 1, and 0.1 mM, respectively. Tested compounds were dissolved in DMSO to obtain a concentration of 0.01 M. DMSO solutions of compounds 1–6 were then diluted with a TET assay buffer to concentrations of 10^−6, 10^−5, 10^−4, and 10^−3 M (in 10% of DMSO). Subsequently, 50 μL of the final TET assay buffer containing the TET1 protein and 5 μL of chelator’s solution was applied to each sample well. In control wells (TET1 without inhibitors), 5 μL of the final TET assay buffer with 10% DMSO was used instead of chelator’s solution. The final concentrations of chelators in a well plate were 10^−7, 10^−6, 10^−5, 10^−4, and 0 M with less than 1% of final concentration of DMSO. The following steps were performed according to manufacturer’s protocol. The TET1 protein converts methylated substrate to hydroxymethylated products, which could be recognized by a specific antibody. We determined the residual activity of the TET1 protein by measuring a fluorescence intensity on an enzyme-linked immunoabsorbent assay reader (ELISA), Infinite® 200 PRO (Tecan, Switzerland, Switzerland), at an excitation wavelength at 530 nm and an emission wavelength at 590 nm. Each concentration was measured twice within one test, and each test was repeated three times. IC50 values of active inhibitors were determined using GraphPad Prism 8 via nonlinear regression.
# [2] = system: H-1299 cells; experiment: MTT cytotoxicity assay, H-1299; assay type: cell-based, human
# Summary of the method: (§1)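 Cells seeded at 1.0 × 10^5/well, grown 24 h, then exposed 48 h to compounds at 0.1–20 μM (≤1% DMSO); U118-MG in DMEM, H1299 in RPMI 1640, both with 10% FBS, 37 °C. MTT 2 h, formazan in DMSO read at 570 nm; IC50 relative to untreated cells (100%).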
# [3] = system: U-118 MG cells; experiment: MTT cytotoxicity assay, U-118 MG; assay type: cell-based, human; conditions: 48 h
# Summary of the method: as §1
# T1 sequence (Q8NFU7 whole entry): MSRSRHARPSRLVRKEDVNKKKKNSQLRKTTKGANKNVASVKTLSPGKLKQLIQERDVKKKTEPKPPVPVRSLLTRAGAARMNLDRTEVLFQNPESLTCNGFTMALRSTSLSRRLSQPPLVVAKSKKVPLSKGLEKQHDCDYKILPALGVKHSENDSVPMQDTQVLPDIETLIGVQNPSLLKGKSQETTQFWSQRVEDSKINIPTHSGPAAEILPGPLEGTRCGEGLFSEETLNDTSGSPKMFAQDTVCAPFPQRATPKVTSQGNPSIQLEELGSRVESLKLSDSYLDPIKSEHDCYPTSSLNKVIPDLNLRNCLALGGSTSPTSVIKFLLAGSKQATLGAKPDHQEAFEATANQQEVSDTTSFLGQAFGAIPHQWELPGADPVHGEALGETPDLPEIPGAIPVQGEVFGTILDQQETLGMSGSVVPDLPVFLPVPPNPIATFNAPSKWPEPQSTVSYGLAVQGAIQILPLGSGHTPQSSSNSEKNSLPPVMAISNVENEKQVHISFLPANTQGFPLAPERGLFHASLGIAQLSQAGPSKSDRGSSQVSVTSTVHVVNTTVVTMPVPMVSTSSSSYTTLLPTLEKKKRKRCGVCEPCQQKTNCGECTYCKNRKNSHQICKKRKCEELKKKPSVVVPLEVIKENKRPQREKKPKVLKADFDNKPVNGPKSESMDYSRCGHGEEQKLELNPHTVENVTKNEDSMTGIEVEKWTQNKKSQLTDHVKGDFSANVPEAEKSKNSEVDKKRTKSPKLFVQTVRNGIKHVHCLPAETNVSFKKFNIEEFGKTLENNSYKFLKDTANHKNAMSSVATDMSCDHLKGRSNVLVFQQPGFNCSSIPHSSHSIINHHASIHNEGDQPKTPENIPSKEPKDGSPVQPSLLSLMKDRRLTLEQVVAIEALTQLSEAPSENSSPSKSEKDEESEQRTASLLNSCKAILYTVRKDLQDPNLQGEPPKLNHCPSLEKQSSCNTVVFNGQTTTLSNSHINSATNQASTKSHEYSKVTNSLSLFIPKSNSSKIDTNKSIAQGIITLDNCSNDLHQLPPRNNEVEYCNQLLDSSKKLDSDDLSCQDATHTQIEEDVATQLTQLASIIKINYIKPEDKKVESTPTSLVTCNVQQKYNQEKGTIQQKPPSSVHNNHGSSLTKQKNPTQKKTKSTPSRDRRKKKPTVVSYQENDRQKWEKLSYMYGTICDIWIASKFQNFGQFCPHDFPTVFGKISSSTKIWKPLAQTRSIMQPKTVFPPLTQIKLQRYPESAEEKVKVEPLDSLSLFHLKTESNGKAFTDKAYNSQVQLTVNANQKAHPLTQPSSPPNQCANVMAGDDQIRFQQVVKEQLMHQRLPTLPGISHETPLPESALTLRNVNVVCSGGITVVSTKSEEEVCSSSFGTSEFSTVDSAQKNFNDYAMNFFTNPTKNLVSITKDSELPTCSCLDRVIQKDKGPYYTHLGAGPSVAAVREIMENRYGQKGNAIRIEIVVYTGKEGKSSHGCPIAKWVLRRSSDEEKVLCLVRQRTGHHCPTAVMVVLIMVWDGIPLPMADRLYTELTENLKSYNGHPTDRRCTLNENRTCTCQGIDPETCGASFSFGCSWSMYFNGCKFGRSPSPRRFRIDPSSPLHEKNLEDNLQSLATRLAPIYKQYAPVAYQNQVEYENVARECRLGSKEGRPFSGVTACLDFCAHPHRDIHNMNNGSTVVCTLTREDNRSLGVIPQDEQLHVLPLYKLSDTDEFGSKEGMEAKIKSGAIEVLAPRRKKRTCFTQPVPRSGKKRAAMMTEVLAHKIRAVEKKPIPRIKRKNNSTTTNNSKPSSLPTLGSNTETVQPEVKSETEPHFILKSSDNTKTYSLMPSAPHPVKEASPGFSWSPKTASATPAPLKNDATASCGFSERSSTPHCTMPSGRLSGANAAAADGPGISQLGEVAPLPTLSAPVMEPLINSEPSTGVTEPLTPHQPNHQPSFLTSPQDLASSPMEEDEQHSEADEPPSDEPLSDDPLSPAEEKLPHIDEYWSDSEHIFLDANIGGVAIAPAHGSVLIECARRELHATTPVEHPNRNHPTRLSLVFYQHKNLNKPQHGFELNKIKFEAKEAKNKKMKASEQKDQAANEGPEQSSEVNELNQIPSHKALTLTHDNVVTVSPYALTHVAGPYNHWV
compound,measurement,setting,value
Cc1ccc(-n2c(-c3ccc(C(=O)N/N=C/c4ccc(O)cc4O)cc3)cc3c2cc(-c2ccc(C(=O)N/N=C/c4ccc(O)cc4O)cc2)n3-c2ccc(C)cc2)cc1 [Compound 4],inhibitory activity towards TET1,[1],no inhibitory effect; also recorded: no significant inhibition
same,Cell viability %,"[2]; H-1299, 100 nM, 48 h, repeats, 0.1 µM",109.0835% and 92.98%
same,Cell viability %,"[2]; H-1299, 500 nM, 48 h, repeats, 0.5 µM",110.8313% and 69.08% and 86.72%
same,Cell viability %,"[2]; H-1299, 750 nM, 48 h, repeats, 0.75 µM",86.2% and 81.89%
same,Cell viability %,"[2]; H-1299, 1 uM, 48 h, repeats, 1 µM",88.02% and 73.99% and 66.83%
same,Cell viability %,"[2]; H-1299, 2.5 uM, 48 h, repeats, 2.5 µM",77.91% and 68.92%
same,Cell viability %,"[2]; H-1299, 5 uM, 48 h, repeats, 5 µM",68.74% and 52.75%
same,Cell viability %,"[2]; H-1299, 7.5 uM, 48 h, repeats, 7.5 µM",38.28% and 33.07%
same,Cell viability %,"[2]; H-1299, 10 uM, 48 h, repeats, 10 µM",21.64% and 18.84%
same,Cell viability %,"[2]; H-1299, 15 uM, 48 h, repeats, 15 µM",10.46% and 11.78%
same,Cell viability %,"[2]; H-1299, 20 uM, 48 h, repeats, 20 µM",7.89% and 6.315%
same,viability at 0.1 µM,"[2]; Homo sapiens, NCI-H1299, 48 h, H-1299, 100 nM, repeats, read-out: Cell viability %",110%
same,viability at 0.75 µM,"[2]; Homo sapiens, NCI-H1299, 48 h, H-1299, 750 nM, repeats, read-out: Cell viability %",86.1%
same,viability at 2.5 µM,"[2]; Homo sapiens, NCI-H1299, 48 h, H-1299, 2.5 uM, repeats, read-out: Cell viability %",77.6%
same,viability at 5 µM,"[2]; Homo sapiens, NCI-H1299, 48 h, H-1299, 5 uM, repeats, read-out: Cell viability %",66.7%
same,viability at 7.5 µM,"[2]; Homo sapiens, NCI-H1299, 48 h, H-1299, 7.5 uM, repeats, read-out: Cell viability %",35.8%
same,viability at 10 µM,"[2]; Homo sapiens, NCI-H1299, 48 h, H-1299, 10 uM, repeats, read-out: Cell viability %",14.8%
same,viability at 15 µM,"[2]; Homo sapiens, NCI-H1299, 48 h, H-1299, 15 uM, repeats, read-out: Cell viability %",11.1%
same,viability at 20 µM,"[2]; Homo sapiens, NCI-H1299, 48 h, H-1299, 20 uM, repeats, read-out: Cell viability %",7.35%
same,IC50,"[2]; Homo sapiens, NCI-H1299, MTT, 48 h",5.75 µM
same,viability at 0.1 µM,"[3]; Homo sapiens, U-118-MG, U-118 MG, 100 nM, repeats, read-out: Cell viability %",89.7%
same,viability at 0.5 µM,"[3]; Homo sapiens, U-118-MG, U-118 MG, 500 nM, repeats, read-out: Cell viability %",81.5%
same,viability at 0.75 µM,"[3]; Homo sapiens, U-118-MG, U-118 MG, 750 nM, repeats, read-out: Cell viability %",88.6%
same,viability at 1 µM,"[3]; Homo sapiens, U-118-MG, U-118 MG, 1 uM, repeats, read-out: Cell viability %",88.8%
same,viability at 2.5 µM,"[3]; Homo sapiens, U-118-MG, U-118 MG, 2.5 uM, repeats, read-out: Cell viability %",78.8%
same,viability at 5 µM,"[3]; Homo sapiens, U-118-MG, U-118 MG, 5 uM, repeats, read-out: Cell viability %",73.7%
same,viability at 7.5 µM,"[3]; Homo sapiens, U-118-MG, U-118 MG, 7.5 uM, repeats, read-out: Cell viability %",24.8%
same,viability at 10 µM,"[3]; Homo sapiens, U-118-MG, U-118 MG, 10 uM, repeats, read-out: Cell viability %",30%
same,viability at 15 µM,"[3]; Homo sapiens, U-118-MG, U-118 MG, 15 uM, repeats, read-out: Cell viability %",21.2%
same,viability at 20 µM,"[3]; Homo sapiens, U-118-MG, U-118 MG, 20 uM, repeats, read-out: Cell viability %",15.2%
same,IC50,"[3]; Homo sapiens, U-118-MG, MTT",6.81 µM
same,Cell viability %,"[3]; U-118 MG, 100 nM, repeats, 0.1 µM",88.01% and 106.1964%
same,Cell viability %,"[3]; U-118 MG, 500 nM, repeats, 0.5 µM",94.35% and 91.8%
same,Cell viability %,"[3]; U-118 MG, 750 nM, repeats, 0.75 µM",93.98% and 97.45%
same,Cell viability %,"[3]; U-118 MG, 1 uM, repeats",94.85% and 87.1%
same,Cell viability %,"[3]; U-118 MG, 2.5 uM, repeats",87.61% and 83.16%
same,Cell viability %,"[3]; U-118 MG, 5 uM, repeats",72.71% and 76.46%
same,Cell viability %,"[3]; U-118 MG, 7.5 uM, repeats",24.19% and 24.17%
same,Cell viability %,"[3]; U-118 MG, 10 uM, repeats",29.03% and 31.26%
same,Cell viability %,"[3]; U-118 MG, 15 uM, repeats",21.17% and 19.82%
same,Cell viability %,"[3]; U-118 MG, 20 uM, repeats",15.6756% and 12.31%

# From publication PMC9505425, “Targeting of the Mitochondrial TET1 Protein by Pyrrolo[3,2-b]pyrrole Chelators” (International Journal of Molecular Sciences, 2022)
